Measurements: patent US12226424B2, “Target protein degradation compounds, their anti-tumor use, their intermediates and use of intermediates” (ShanghaiTech University, priority 2018, dated 2025)
Where two headings read alike, the source gives them in different places.

Experiments:
MV-4-11 cells = assay: Half inhibitory concentration (IC50) on BET-expressing tumor cells, CCK-8, MV-4-11
Description: Determination of the Half Inhibitory Concentration (IC50) of PROTAD Compounds on Tumor Cells
MV-411 cells, MM1S cells and SR cells were seeded in 100 μL IMDM/RPMI1640/DMEM complete medium at a density of 15000/10000 cells/well; MDA-MB-231 cells, MDA-MB-468 cells, and MDA-MB453 cells were seeded in 100 μL IMDM/RPMI1640/DMEM complete medium at a density of 3000/5000 cells/well, respectively. 100 μL of the inoculated cells were treated with 0.5 μL diluted PROTAD compounds of the present disclosure to be tested at 10 successively decreasing concentrations (starting at the highest concentration of 10 μM; 5-fold serial dilutions). After the cells were treated with the tested drugs 48/72 h, the cell viability was determined according to the CCK-8 reagent manual. The negative control was DMSO, and the positive control was a commercial inhibitor. After CCK-8 treatment for 2 h, the value of O.D.450 was measured using a microplate reader.

[1] = system: K562 cells (BCR-ABL positive); assay: Half inhibitory concentration (IC50) on tumor cells, CCK-8, K562; conditions: Homo sapiens, K562, 48 h, read-out: IC50 (nM)/K562 cell line
Description: Determination of Half Inhibitory Concentration (IC50) of PROTAD Compounds on Tumor Cells
K562 cells were seeded in 100 μL of RPMI1640 complete medium at a density of 20,000 cells/well. 100 μL of the inoculated cells were treated with 100 μL diluted PROTAD compound of the present disclosure to be tested at 9 successively decreasing concentrations (starting at the highest concentration of 10 μM; 3-fold serial dilutions). After the cells were treated with the tested drugs for 48 hours, the cell viability determination was performed in accordance with CCK-8 reagent operating instructions. The negative control was DMSO, and positive control was a commercial inhibitor. After CCK-8 treatment for 2 h, the value of O.D.450 was measured using a microplate reader.

[2] = Homo sapiens, MV4-11, read-out: IC50 (nM)/MV-4-11 cell line, MV-4-11 cells, 48/72 h, CCK-8
[3] = read-out: IC50 (nM)/MV-4-11 cell line, MV-4-11 cells, 48/72 h, CCK-8

| IC50 (MV-4-11 cells; [2]) | IC50 (MV-4-11 cells; [3]) | IC50 [1] | Structure (SMILES) |
| --- | --- | --- | --- |
| 0.084 nM | 0.051 nM | – | Cc1sc2c(c1C)C(c1ccc(Cl)cc1)=N[C@@H](CC(=O)N1CCN(CCCCSc3cccc4c3CN(C3CCC(=O)NC3=O)C4=O)CC1)c1nnc(C)n1-2 (stereo partly drawn) [SIAIS213138, 3-(4-((4-(4-(2-((S)-4-(4-chlorophenyl)-2,3,9-trimethyl-6H-thieno[3,2-f][1,2,4]triazolo[4,3-a][1,4]diazepin-6-yl)acetyl)piperazin-1-yl)butyl)thio)-1-oxoisoindolin-2-yl)piperidine-2,6-dione] |
| 0.036 ± 0.045 nM | – | – | Cc1sc2c(c1C)C(c1ccc(Cl)cc1)=N[C@@H](CC(=O)NCCN1CCN(CCCCCSc3cccc4c3CN(C3CCC(=O)NC3=O)C4=O)CC1)c1nnc(C)n1-2 (stereo partly drawn) [SIAIS213133, 2-((S)-4-(4-chlorophenyl)-2,3,9-trimethyl-6H-thieno[3,2-f][1,2,4]triazolo[4,3-a][1,4]diazepin-6-yl)-N-(2-(4-(5-((2-(2,6-dioxopiperidin-3-yl)-1-oxoisoindolin-4-yl)thio)pentyl)piperazin-1-yl)ethyl)acetamide] |
| 0.027 ± 0.006 nM | – | – | Cc1sc2c(c1C)C(c1ccc(Cl)cc1)=N[C@@H](CC(=O)NCCN1CCN(CCCCSc3cccc4c3CN(C3CCC(=O)NC3=O)C4=O)CC1)c1nnc(C)n1-2 (stereo partly drawn) [SIAIS213139, 2-((S)-4-(4-chlorophenyl)-2,3,9-trimethyl-6H-thieno[3,2-f][1,2,4]triazolo[4,3-a][1,4]diazepin-6-yl)-N-(2-(4-(4-((2-(2,6-dioxopiperidin-3-yl)-1-oxoisoindolin-4-yl)thio)butyl)piperazin-1-yl)ethyl)acetamide] |
| 0.068 nM | 0.04 nM | – | Cc1sc2c(c1C)C(c1ccc(Cl)cc1)=N[C@@H](CC(=O)NCCN1CCN(CCCSc3cccc4c3CN(C3CCC(=O)NC3=O)C4=O)CC1)c1nnc(C)n1-2 (stereo partly drawn) [SIAIS213136, 2-((S)-4-(4-chlorophenyl)-2,3,9-trimethyl-6H-thieno[3,2-f][1,2,4]triazolo[4,3-a][1,4]diazepin-6-yl)-N-(2-(4-(3-((2-(2,6-dioxopiperidin-3-yl)-1-oxoisoindolin-4-yl)thio)propyl)piperazin-1-yl)ethyl)acetamide] |
| 0.5 ± 0.1 nM | – | – | Cc1sc2c(c1C)C(c1ccc(Cl)cc1)=N[C@@H](CC(=O)NCCOCCSc1cccc3c1CN(C1CCC(=O)NC1=O)C3=O)c1nnc(C)n1-2 (stereo partly drawn) [SIAIS213100, 2-((S)-4-(4-chlorophenyl)-2,3,9-trimethyl-6H-thieno[3,2-f][1,2,4]triazolo[4,3-a][1,4]diazepin-6-yl)-N-(2-(2-((2-(2,6-dioxopiperidin-3-yl)-1-oxoisoindolin-4-yl)thio)ethoxy)ethyl)acetamide] |
| 0.063 nM | 0.041 nM | – | Cc1sc2c(c1C)C(c1ccc(Cl)cc1)=N[C@@H](CC(=O)N1CCN(CCCSc3cccc4c3CN(C3CCC(=O)NC3=O)C4=O)CC1)c1nnc(C)n1-2 (stereo partly drawn) [SIAIS213117, 3-(4-((3-(4-(2-((S)-4-(4-chlorophenyl)-2,3,9-trimethyl-6H-thieno[3,2-f][1,2,4]triazolo[4,3-a][1,4]diazepin-6-yl)acetyl)piperazin-1-yl)propyl)thio)-1-oxoisoindolin-2-yl)piperidine-2,6-dione] |

More lines, now with the values behind:

| Structure (SMILES) | IC50 (MV-4-11 cells; [2]) | IC50 (MV-4-11 cells; [3]) | IC50 [1] |
| --- | --- | --- | --- |
| Cc1ccc(C(=O)Nc2ccc(CN3CCN(C(=O)CCCCCCSc4cccc5c4C(=O)N(C4CCC(=O)NC4=O)C5=O)CC3)c(C(F)(F)F)c2)cc1C#Cc1cnc2cccnn12 (stereo not shown) [SIAIS220050, N-(4-((4-(7-((2-(2,6-dioxopiperidin-3-yl)-1,3-dioxoisoindolin-4-yl)thio)heptanoyl)piperazin-1-yl)methyl)-3-(trifluoromethyl)phenyl)-3-(imidazo[1,2-b]pyridazin-3-ylethynyl)-4-methylbenzamide] | – | – | 12.8 nM |
| Cc1sc2c(c1C)C(c1ccc(Cl)cc1)=N[C@@H](CC(=O)NCCN1CCNCC1)c1nnc(C)n1-2 [SIAIS213130] | 29.8 nM | 17.7 nM | – |
| COc1cc(Nc2c(C#N)cnc3cc(OCCCN4CCN(C(=O)CCCCCSc5cccc6c5C(=O)N(C5CCC(=O)NC5=O)C6=O)CC4)c(OC)cc23)c(Cl)cc1Cl (stereo not shown) [SIAIS151172, 4-((2,4-dichloro-5-methoxyphenyl)amino)-7-(3-(4-(6-((2-(2,6-dioxopiperidin-3-yl)-1,3-dioxoisoindolin-4-yl)thio)hexanoyl)piperazin-1-yl)propoxy)-6-methoxyquinoline-3-carbonitrile] | – | – | 1370 nM |
| Cc1ccc(C(=O)Nc2ccc(CN3CCN(C(=O)CCCSc4cccc5c4CN(C4CCC(=O)NC4=O)C5=O)CC3)c(C(F)(F)F)c2)cc1C#Cc1cnc2cccnn12 (stereo not shown) [SIAIS220053, N-(4-((4-(4-((2-(2,6-dioxopiperidin-3-yl)-1-oxoisoindolin-4-yl)thio)butanoyl)piperazin-1-yl)methyl)-3-(trifluoromethyl)phenyl)-3-(imidazo[1,2-b]pyridazin-3-ylethynyl)-4-methylbenzamide] | – | – | 4.06 nM |
| COc1cc(Nc2c(C#N)cnc3cc(OCCCN4CCN(C(=O)CCCSc5cccc6c5C(=O)N(C5CCC(=O)NC5=O)C6=O)CC4)c(OC)cc23)c(Cl)cc1Cl (stereo not shown) [SIAIS151170, 4-((2,4-dichloro-5-methoxyphenyl)amino)-7-(3-(4-(4-((2-(2,6-dioxopiperidin-3-yl)-1,3-dioxoisoindolin-4-yl)thio)butanoyl)piperazin-1-yl)propoxy)-6-methoxyquinoline-3-carbonitrile] | – | – | 400 nM |
| COc1cc(Nc2c(C#N)cnc3cc(OCCCN4CCN(C(=O)CCCCSc5cccc6c5C(=O)N(C5CCC(=O)NC5=O)C6=O)CC4)c(OC)cc23)c(Cl)cc1Cl (stereo not shown) [SIAIS151171, 4-((2,4-dichloro-5-methoxyphenyl)amino)-7-(3-(4-(5-((2-(2,6-dioxopiperidin-3-yl)-1,3-dioxoisoindolin-4-yl)thio)pentanoyl)piperazin-1-yl)propoxy)-6-methoxyquinoline-3-carbonitrile] | – | – | 1540 nM |
| Cc1ccc(C(=O)Nc2ccc(CN3CCN(C(=O)CCCCCSc4cccc5c4CN(C4CCC(=O)NC4=O)C5=O)CC3)c(C(F)(F)F)c2)cc1C#Cc1cnc2cccnn12 (stereo not shown) [SIAIS220055, N-(4-((4-(6-((2-(2,6-dioxopiperidin-3-yl)-1-oxoisoindolin-4-yl)thio)hexanoyl)piperazin-1-yl)methyl)-3-(trifluoromethyl)phenyl)-3-(imidazo[1,2-b]pyridazin-3-ylethynyl)-4-methylbenzamide] | – | – | 5.58 nM |
| COc1cc(Nc2c(C#N)cnc3cc(OCCCN4CCN(C(=O)CCCCCCSc5cccc6c5C(=O)N(C5CCC(=O)NC5=O)C6=O)CC4)c(OC)cc23)c(Cl)cc1Cl (stereo not shown) [SIAIS151173, 4-((2,4-dichloro-5-methoxyphenyl)amino)-7-(3-(4-(7-((2-(2,6-dioxopiperidin-3-yl)-1,3-dioxoisoindolin-4-yl)thio)heptanoyl)piperazin-1-yl)propoxy)-6-methoxyquinoline-3-carbonitrile] | – | – | 8260 nM |
| Cc1ccc(C(=O)Nc2ccc(CN3CCN(C(=O)CCCCSc4cccc5c4CN(C4CCC(=O)NC4=O)C5=O)CC3)c(C(F)(F)F)c2)cc1C#Cc1cnc2cccnn12 (stereo not shown) [SIAIS220054, N-(4-((4-(5-((2-(2,6-dioxopiperidin-3-yl)-1-oxoisoindolin-4-yl)thio)pentanoyl)piperazin-1-yl)methyl)-3-(trifluoromethyl)phenyl)-3-(imidazo[1,2-b]pyridazin-3-ylethynyl)-4-methylbenzamide] | – | – | 2.68 nM |
| Cc1sc2c(c1C)C(c1ccc(Cl)cc1)=N[C@@H](CC(=O)N1CCNCC1)c1nnc(C)n1-2 [SIAIS213113] | 21.6 nM | 12.9 nM | – |
| Cc1ccc(C(=O)Nc2ccc(CN3CCN(C(=O)CCCCCCSc4cccc5c4CN(C4CCC(=O)NC4=O)C5=O)CC3)c(C(F)(F)F)c2)cc1C#Cc1cnc2cccnn12 (stereo not shown) [SIAIS220056, N-(4-((4-(7-((2-(2,6-dioxopiperidin-3-yl)-1-oxoisoindolin-4-yl)thio)heptanoyl)piperazin-1-yl)methyl)-3-(trifluoromethyl)phenyl)-3-(imidazo[1,2-b]pyridazin-3-ylethynyl)-4-methylbenzamide] | – | – | 5.98 nM |
| Cc1ccc(C(=O)Nc2ccc(CN3CCN(C(=O)CCCCSc4cccc5c4C(=O)N(C4CCC(=O)NC4=O)C5=O)CC3)c(C(F)(F)F)c2)cc1C#Cc1cnc2cccnn12 (stereo not shown) [SIAIS220048, N-(4-((4-(5-((2-(2,6-dioxopiperidin-3-yl)-1,3-dioxoisoindolin-4-yl)thio)pentanoyl)piperazin-1-yl)methyl)-3-(trifluoromethyl)phenyl)-3-(imidazo[1,2-b]pyridazin-3-ylethynyl)-4-methylbenzamide] | – | – | 4.06 nM |
| Cc1ccc(C(=O)Nc2ccc(CN3CCN(C(=O)CCCCCSc4cccc5c4C(=O)N(C4CCC(=O)NC4=O)C5=O)CC3)c(C(F)(F)F)c2)cc1C#Cc1cnc2cccnn12 (stereo not shown) [SIAIS220049, N-(4-((4-(6-((2-(2,6-dioxopiperidin-3-yl)-1,3-dioxoisoindolin-4-yl)thio)hexanoyl)piperazin-1-yl)methyl)-3-(trifluoromethyl)phenyl)-3-(imidazo[1,2-b]pyridazin-3-ylethynyl)-4-methylbenzamide] | – | – | 5.75 nM |
| Cc1ccc(C(=O)Nc2ccc(CN3CCN(C(=O)CCCSc4cccc5c4C(=O)N(C4CCC(=O)NC4=O)C5=O)CC3)c(C(F)(F)F)c2)cc1C#Cc1cnc2cccnn12 (stereo not shown) [SIAIS220047, N-(4-((4-(4-((2-(2,6-dioxopiperidin-3-yl)-1,3-dioxoisoindolin-4-yl)thio)butanoyl)piperazin-1-yl)methyl)-3-(trifluoromethyl)phenyl)-3-(imidazo[1,2-b]pyridazin-3-ylethynyl)-4-methylbenzamide] | – | – | 3.23 nM |
